Measurements published in article PMC2806265, “Divergence of allosteric effects of rapacuronium on binding and function of muscarinic receptors” (BMC Pharmacology, 2009).
Like-named read-outs stand apart in the source and are kept apart here. Marks after values point to notes of the source that are not given here.

Experiments:
[1] = tested on: nontransfected CHO-K1 cells; assay: [35S]GTPγS binding to membranes from nontransfected cells; assay type: biochemical, Chinese hamster
Protocol: Figure 6 Effects of rapacuronium on ACh-induced [^35S]GTPγS binding to membranes. Membranes from CHO cells expressing individual subtypes of muscarinic receptors or nontransfected CHO-K1 cells were preincubated for 60 min with buffer (closed symbols) or with rapacuronium (open symbols). […] Data are expressed as fold increase of basal [^35S]GTPγS binding and are presented as means ± SE from 3 independent experiments performed in quadruplicates. Curves are fits of Eq. 5 to data.

[2] = target: T1, M2 muscarinic receptor (Homo sapiens, UniProt P08172); assay: Effect of rapacuronium on 1 nM [3H]NMS binding; parameters: host or cells: CHO cells, stably transfected; membrane preparation
T1 sequence (P08172 1-466): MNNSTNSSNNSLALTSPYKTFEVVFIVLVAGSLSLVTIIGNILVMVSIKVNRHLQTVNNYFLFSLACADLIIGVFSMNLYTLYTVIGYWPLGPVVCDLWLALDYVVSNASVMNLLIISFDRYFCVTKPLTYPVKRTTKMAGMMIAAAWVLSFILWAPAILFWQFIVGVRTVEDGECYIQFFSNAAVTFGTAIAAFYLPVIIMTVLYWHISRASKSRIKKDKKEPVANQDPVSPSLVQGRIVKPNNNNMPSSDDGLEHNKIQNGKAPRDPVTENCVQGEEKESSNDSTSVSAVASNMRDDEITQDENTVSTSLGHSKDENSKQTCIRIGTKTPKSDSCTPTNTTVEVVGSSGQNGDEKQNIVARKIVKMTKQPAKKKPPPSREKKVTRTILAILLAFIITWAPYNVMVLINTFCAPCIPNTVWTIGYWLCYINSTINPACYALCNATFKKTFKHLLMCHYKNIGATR
Description: Cooperativity factor greater than 1 denotes negative cooperativity and less than 1 positive cooperativity. Due to its log-normal error distribution factors of cooperativity are expressed as negative logarithms (pα) through the manuscript so negative values denotes negative cooperativity and positive value denotes positive cooperativity.

[3] = target: T2, M1 muscarinic receptor (Homo sapiens, UniProt P11229); assay type: binding; settings: + 100 μM rapacuronium
T2 construct: host or cells: CHO cells, stably transfected; membrane preparation
T2 sequence (P11229 1-460): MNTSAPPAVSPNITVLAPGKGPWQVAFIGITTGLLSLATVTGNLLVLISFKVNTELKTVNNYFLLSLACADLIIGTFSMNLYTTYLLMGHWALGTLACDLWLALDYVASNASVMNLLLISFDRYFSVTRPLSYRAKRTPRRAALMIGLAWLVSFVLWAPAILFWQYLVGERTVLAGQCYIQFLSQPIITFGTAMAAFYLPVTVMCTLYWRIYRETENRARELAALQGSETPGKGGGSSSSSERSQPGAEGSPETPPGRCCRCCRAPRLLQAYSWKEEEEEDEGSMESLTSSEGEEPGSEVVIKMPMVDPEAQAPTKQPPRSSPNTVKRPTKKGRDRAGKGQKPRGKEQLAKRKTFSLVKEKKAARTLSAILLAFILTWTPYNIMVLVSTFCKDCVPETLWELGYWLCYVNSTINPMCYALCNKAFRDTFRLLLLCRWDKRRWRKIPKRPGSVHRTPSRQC
Description: (§1) y, radioligand binding at time x normalized to binding at time 0; koff1 and koff2, dissociation rate constants; f2, fraction of binding site with dissociation rate constant koff2. When both Eq. 7a and 7b were fitted to data the better fit was chosen based on sum of squares F-test and runs test.

[4] = target: T3, M3 muscarinic receptor (Homo sapiens, UniProt P20309); assay type: binding
T3 construct: host or cells: CHO cells, stably transfected; membranes
Description: as §1

[5] = target: T3, M3 muscarinic receptor; assay type: biochemical; settings: CHO-M3 membranes
Description: Time course of association(6) [drawing 6]
y, radioligand binding at time x; kobs, observed rate of association; equilibrium binding Beq = Bottom + Span.

[6] = tested on: M1 to M5 muscarinic receptors; assay: [35S]GTPγS binding, statements over several subtypes; settings: rapacuronium alone
Protocol: (§4) For determination of [^35S]GTPγS binding to G-proteins in membranes a final concentration of 200 pM (M1, M3 and M5 receptors) or 500 pM (M2 and M4 receptors) of [^35S]GTPγS was used. Incubation medium was supplemented with 5 μM (M1, M3 and M5 receptors) or 50 μM (M2 and M4 receptors) GDP. […] Incubation with [^35S]GTPγS was carried out for 20 min and free ligand was removed by filtration as described above. Filtration and washing with ice-cold water lasted for 9 s (wash-aspirate button time).

[7] = target: T2, M1 muscarinic receptor; assay type: binding
Description: (§2) BMAX, maximum binding capacity; KD, equilibrium dissociation constant.

[8] = target: T3, M3 muscarinic receptor; assay type: binding; remark: listed apart in the source
Description: as §2

[9] = target: T2, M1 muscarinic receptor; assay: [35S]GTPγS binding to membranes; assay type: biochemical; settings: for EMAX of ACh on [^35S]GTPγS binding: fold of basal
Protocol: as §4

[10] = target: T2, M1 muscarinic receptor; assay: Effect of rapacuronium on low-affinity ACh binding ([3H]NMS + GTPγS + ACh)
Description: (§3) Data are expressed as percent of specific binding in the absence of rapacuronium. […] Data are means ± SE from 3 independent experiments performed in quadruplicates. Curves are fits of Eq. 3 (circles) and Eq. 4 (squares and triangles) to data prior to normalization.

[11] = target: T3, M3 muscarinic receptor; assay: as above
Description: as §3

[12] = read-out: pKA of rapacuronium (converted)

T3 sequence (P20309 whole entry): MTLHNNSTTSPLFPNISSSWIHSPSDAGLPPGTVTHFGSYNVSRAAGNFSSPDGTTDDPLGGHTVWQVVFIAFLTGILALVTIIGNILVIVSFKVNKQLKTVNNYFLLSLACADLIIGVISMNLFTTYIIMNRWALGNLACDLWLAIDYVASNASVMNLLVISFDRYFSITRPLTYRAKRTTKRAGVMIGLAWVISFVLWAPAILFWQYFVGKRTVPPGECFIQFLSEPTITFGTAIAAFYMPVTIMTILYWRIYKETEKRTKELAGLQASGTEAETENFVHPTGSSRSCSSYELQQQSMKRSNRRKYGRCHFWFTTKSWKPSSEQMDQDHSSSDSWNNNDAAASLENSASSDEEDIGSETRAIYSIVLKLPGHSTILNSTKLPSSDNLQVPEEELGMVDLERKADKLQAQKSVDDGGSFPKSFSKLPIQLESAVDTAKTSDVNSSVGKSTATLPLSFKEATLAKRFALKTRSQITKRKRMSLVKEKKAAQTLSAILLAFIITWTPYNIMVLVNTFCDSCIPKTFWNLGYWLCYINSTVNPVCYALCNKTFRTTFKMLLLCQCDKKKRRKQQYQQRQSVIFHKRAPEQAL

C=CC[N+]1([C@H]2C[C@H]3[C@@H]4CC[C@H]5C[C@H](OC(C)=O)[C@@H](N6CCCCC6)C[C@]5(C)[C@H]4CC[C@]3(C)[C@H]2OC(=O)CC)CCCCC1 [rapacuronium] was tested, and the “effect on [^35S]GTPγS binding” value [1] was “did not decrease”, the “decrease in affinity of [^3H]NMS (cooperativity)” value ([2]; M2) was 6.8 fold and the “pα, cooperativity with [^3H]NMS” value ([2]; M2, negative value = negative cooperativity) was -0.83 ± 0.07. The Kd [2, 12] was 2.57 µM, the “f2, fraction of sites with faster dissociation” value [3] was 14 ± 3% and the “koff1 of [^3H]NMS dissociation” value [3] was 0.014 ± 0.001* min^-1. The “koff2 of [^3H]NMS dissociation” value [3] was 0.00567 ± 0.00083 s⁻¹, the “decrease in rate of [^3H]NMS dissociation” value ([4]; 100 μM rapacuronium) was 40% and the “f2, fraction of sites with faster dissociation” value ([4]; + 100 μM rapacuronium) was 20 ± 4%. The “koff1 of [^3H]NMS dissociation” value ([4]; + 100 μM rapacuronium) was 0.031 ± 0.002* min^-1, the “koff2 of [^3H]NMS dissociation” value ([4]; + 100 μM rapacuronium) was 0.000967 ± 0.00015 s⁻¹ and the “effect on rate of [^35S]GTPγS binding” value ([5]; 1 μM rapacuronium alone) was “slightly decreased”. The “increase in [^35S]GTPγS binding at 5 min incubation” value ([5]; 10 μM ACh + 1 μM rapacuronium) was ~5 fold, the “observed rate (kobs) of [^35S]GTPγS binding” value ([5]; 10 μM ACh + 1 μM rapacuronium) was 0.166 ± 0.013 min⁻¹ and the “estimated [^35S]GTPγS equilibrium binding (Beq)” value ([5]; 10 μM ACh with 1 μM rapacuronium) was 9,980 ± 120 cpm per well. The “maximal lowering of [^35S]GTPγS binding” value ([6]; even-numbered subtypes) was ~15%, the “maximal lowering of [^35S]GTPγS binding” value ([6]; odd-numbered subtypes) was “approximately 25%” and the “BMAX of [^3H]NMS” value ([7]; + 10 μM rapacuronium) was 2.03 ± 0.15 fmol/μg of protein. The “BMAX of [^3H]NMS” value ([7]; + 100 μM rapacuronium) was 1.85 ± 0.17 fmol/μg of protein, the “BMAX of [^3H]NMS” value ([8]; + 10 μM rapacuronium) was 1.67 ± 0.14 fmol/μg of protein and the “BMAX of [^3H]NMS” value ([8]; + 100 μM rapacuronium) was 1.59 ± 0.16 fmol/μg of protein. The “decrease in ACh EC50” value ([9]; 0.1 μM rapacuronium) was 1.5 fold, the “decrease in ACh EC50” value ([9]; 1 μM rapacuronium) was 4 fold and the “EMAX of ACh on [^35S]GTPγS binding” value ([9]; + 0.1 μM rapacuronium) was 2.35 ± 0.12. For the same compound, the “EMAX of ACh on [^35S]GTPγS binding” value ([9]; + 1 μM rapacuronium) was 2.28 ± 0.12, the “EMAX of ACh on [^35S]GTPγS binding” value ([9]; + 10 μM rapacuronium) was 2.27 ± 0.11 and the “EMAX of rapacuronium on [^35S]GTPγS binding” value ([9]; rapacuronium alone, normalized to absence of rapacuronium) was 0.76 ± 0.08. The EC50 ([9]; rapacuronium alone, read-out: pEC50 of rapacuronium on [^35S]GTPγS binding (converted)) was 50.1 µM, the Kd [10] was 4.68 µM and the “pβ, cooperativity with ACh low affinity binding” value ([10]; M1, negative value = negative cooperativity) was -1.32 ± 0.06. For the same compound, the “decrease in ACh low-affinity binding (cooperativity)” value ([11]; M3) was 16 fold, the “pβ, cooperativity with ACh low affinity binding” value ([11]; M3, negative value = negative cooperativity) was -1.20 ± 0.07 and the Kd [11, 12] was 17 µM.
